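Exposure lasted 48 hours, with cells grown in 96-well plates and compounds tested at five concentrations. GI50 marks 50% less growth.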 Activity calls are given as the source filed them. Rule as the data show it: active = GI50 up to about 1.1 µM and inactive = higher.
Key:
Test in all cases: DTP human tumour cell line panel, 48 h
UACC-257 = system: UACC-257
UACC-62 = system: UACC-62
SNB-75 = system: SNB-75
HOP-62 = system: HOP-62
SK-MEL-2 = system: SK-MEL-2
OVCAR-8 = system: OVCAR-8
KM12 = system: KM12
SW-620 = system: SW-620
RPMI-8226 = system: RPMI-8226
OVCAR-3 = system: OVCAR-3
HCT-15 = system: HCT-15
TK-10 = system: TK-10
SK-OV-3 = system: SK-OV-3
MDA-MB-231 = system: MDA-MB-231
NCI-H522 = system: NCI-H522
SK-MEL-5 = system: SK-MEL-5
786-0 = system: 786-0
K562 = system: K562
ACHN = system: ACHN

SMILES	GI50 (UACC-257)	GI50 (UACC-62)	GI50 (SNB-75)	GI50 (HOP-62)	GI50 (SK-MEL-2)	GI50 (OVCAR-8)	GI50 (KM12)	GI50 (SW-620)	GI50 (RPMI-8226)	GI50 (OVCAR-3)	GI50 (HCT-15) [µM]	GI50 (TK-10)	GI50 (SK-OV-3)	GI50 (MDA-MB-231)	GI50 (NCI-H522)	GI50 (SK-MEL-5)	GI50 (786-0)	GI50 (K562)	GI50 (ACHN)
O=C(O)c1ccccc1/C=C1\Cc2ccc3c(c2C1=O)CCCC3	25.1 µM (inactive)	21.1 µM (inactive)	27 µM (inactive)	49.7 µM (inactive)	31.3 µM (inactive)	68.7 µM (inactive)	39.8 µM (inactive)	30.8 µM (inactive)	26.9 µM (inactive)	31 µM (inactive)	37.1	75.2 µM (inactive)	94.8 µM (inactive)	21.4 µM (inactive)	25.2 µM (inactive)	15.9 µM (inactive)	98.9 µM (inactive)	38 µM (inactive)	36.5 µM (inactive)
CC(=O)NC1C(OCc2ccccc2)OC(CO)C(O)C1OCC(=O)N[C@@H](C)C(=O)N[C@H](CCC(=O)NCCCNc1ccc([N+](=O)[O-])c2[nH]c3ccccc3c(=O)c12)C(N)=O (some centres undefined)	54 µM (inactive)	36.2 µM (inactive)	46.6 µM (inactive)	65 µM (inactive)	> 100 µM (inactive)	92.9 µM (inactive)	93.5 µM (inactive)	> 100 µM (inactive)	> 100 µM (inactive)	> 100 µM (inactive)	94.2	41.7 µM (inactive)	> 100 µM (inactive)	> 100 µM (inactive)	29.3 µM (inactive)	57.9 µM (inactive)	34.2 µM (inactive)	> 100 µM (inactive)	50.8 µM (inactive)
CCc1n[nH]c(=O)n1-n1c(C)ccc1C	> 100 µM (inactive)	> 100 µM (inactive)	> 100 µM (inactive)	> 100 µM (inactive)	> 100 µM (inactive)	> 100 µM (inactive)	> 100 µM (inactive)	> 100 µM (inactive)	> 100 µM (inactive)	> 100 µM (inactive)	> 100	> 100 µM (inactive)	> 100 µM (inactive)	> 100 µM (inactive)	> 100 µM (inactive)	> 100 µM (inactive)	> 100 µM (inactive)	> 100 µM (inactive)	> 100 µM (inactive)
COC1CC(OC2CCC3(C)C(=CCC4C3C(OC(C)=O)C(OC(=O)CC(C)C)C3(C)C(C(C)=O)CCC43O)C2)OC(C)C1OC1CC(OC)C(OC2CC(OC)C(OC3OC(C)C(O)C(OC)C3O)C(C)O2)C(C)O1 (centres undefined)	28.8 µM (inactive)	26.1 µM (inactive)	24.4 µM (inactive)	> 100 µM (inactive)	24.7 µM (inactive)	29.2 µM (inactive)	33.1 µM (inactive)	31.3 µM (inactive)	17.7 µM (inactive)	43.9 µM (inactive)	27.3	25.9 µM (inactive)	51.1 µM (inactive)	26.5 µM (inactive)	37.9 µM (inactive)	18.7 µM (inactive)	24.9 µM (inactive)	36.6 µM (inactive)	31.6 µM (inactive)
O=C(Nc1cccc(C(=O)NCCCO)c1)/C(=C/c1ccccc1)NC(=O)c1ccccc1	> 100 µM (inactive)	> 100 µM (inactive)	> 100 µM (inactive)	> 100 µM (inactive)	> 100 µM (inactive)	> 100 µM (inactive)	> 100 µM (inactive)	> 100 µM (inactive)	> 100 µM (inactive)	> 100 µM (inactive)	> 100	> 100 µM (inactive)	> 100 µM (inactive)	> 100 µM (inactive)	> 100 µM (inactive)	> 100 µM (inactive)	> 100 µM (inactive)	> 100 µM (inactive)	> 100 µM (inactive)
CCCCC(C(=O)NCCNC(=O)CCC(=O)N(C)O)C(=O)NCCNC(=O)CCC(=O)N(C)O	> 100 µM (inactive)	> 100 µM (inactive)	> 100 µM (inactive)	> 100 µM (inactive)	> 100 µM (inactive)	> 100 µM (inactive)	> 100 µM (inactive)	> 100 µM (inactive)	> 100 µM (inactive)	> 100 µM (inactive)	> 100	> 100 µM (inactive)	> 100 µM (inactive)	> 100 µM (inactive)	> 100 µM (inactive)	> 100 µM (inactive)	> 100 µM (inactive)	> 100 µM (inactive)	> 100 µM (inactive)
COC1(C)CP(=O)(OC(C)C)CC(C)=C1Cl (centres undefined)	16.9 µM (inactive)	10.2 µM (inactive)	46.9 µM (inactive)	17.9 µM (inactive)	6.41 µM (inactive)	16.1 µM (inactive)	15.5 µM (inactive)	14.4 µM (inactive)	3.78 µM (inactive)	10.7 µM (inactive)	12.3	15.9 µM (inactive)	49.2 µM (inactive)	15.9 µM (inactive)	9.62 µM (inactive)	12.4 µM (inactive)	19 µM (inactive)	3.36 µM (inactive)	18.4 µM (inactive)
CN(NC(=O)c1cccs1)C1=NCCCN1	> 100 µM (inactive)	> 100 µM (inactive)	> 100 µM (inactive)	> 100 µM (inactive)	> 100 µM (inactive)	> 100 µM (inactive)	> 100 µM (inactive)	> 100 µM (inactive)	> 100 µM (inactive)	> 100 µM (inactive)	> 100	> 100 µM (inactive)	> 100 µM (inactive)	> 100 µM (inactive)	> 100 µM (inactive)	> 100 µM (inactive)	> 100 µM (inactive)	> 100 µM (inactive)	> 100 µM (inactive)
COc1cc(O)c2c(=O)cc(C3(OC(C)=O)C=CC(OC4OC(CO)C(O)C(O)C4O)C=C3)oc2c1 (centres undefined)	> 100 µM (inactive)	> 100 µM (inactive)	> 100 µM (inactive)	> 100 µM (inactive)	> 100 µM (inactive)	> 100 µM (inactive)	> 100 µM (inactive)	> 100 µM (inactive)	> 100 µM (inactive)	> 100 µM (inactive)	> 100	> 100 µM (inactive)	> 100 µM (inactive)	> 100 µM (inactive)	> 100 µM (inactive)	> 100 µM (inactive)	> 100 µM (inactive)	> 100 µM (inactive)	> 100 µM (inactive)
NC(Cc1ccccc1)c1nccs1 (centres undefined)	> 100 µM (inactive)	> 100 µM (inactive)	> 100 µM (inactive)	> 100 µM (inactive)	> 100 µM (inactive)	> 100 µM (inactive)	> 100 µM (inactive)	> 100 µM (inactive)	> 100 µM (inactive)	> 100 µM (inactive)	> 100	> 100 µM (inactive)	> 100 µM (inactive)	> 100 µM (inactive)	> 100 µM (inactive)	> 100 µM (inactive)	> 100 µM (inactive)	> 100 µM (inactive)	> 100 µM (inactive)
CCOC1CC(=O)c2c(Br)sc(Br)c21 (centres undefined)	16.9 µM (inactive)	18.7 µM (inactive)	19.1 µM (inactive)	18.5 µM (inactive)	17.5 µM (inactive)	17.5 µM (inactive)	19.3 µM (inactive)	20 µM (inactive)	17.9 µM (inactive)	14.6 µM (inactive)	18	20.7 µM (inactive)	16.5 µM (inactive)	19.5 µM (inactive)	28.5 µM (inactive)	30.8 µM (inactive)	30.7 µM (inactive)	17.3 µM (inactive)	19.7 µM (inactive)

Reference: ChEMBL document CHEMBL1201862, “PubChem BioAssay data set” (2004)
